# Data from patent US7439242B2, “PPARγ modulators” (Amgen Inc., priority 1998, dated 2008).
# Molecular target: T1, PPARγ (Homo sapiens, UniProt P37231)
# T1 construct: made in house
# T1 sequence (P37231 1-505): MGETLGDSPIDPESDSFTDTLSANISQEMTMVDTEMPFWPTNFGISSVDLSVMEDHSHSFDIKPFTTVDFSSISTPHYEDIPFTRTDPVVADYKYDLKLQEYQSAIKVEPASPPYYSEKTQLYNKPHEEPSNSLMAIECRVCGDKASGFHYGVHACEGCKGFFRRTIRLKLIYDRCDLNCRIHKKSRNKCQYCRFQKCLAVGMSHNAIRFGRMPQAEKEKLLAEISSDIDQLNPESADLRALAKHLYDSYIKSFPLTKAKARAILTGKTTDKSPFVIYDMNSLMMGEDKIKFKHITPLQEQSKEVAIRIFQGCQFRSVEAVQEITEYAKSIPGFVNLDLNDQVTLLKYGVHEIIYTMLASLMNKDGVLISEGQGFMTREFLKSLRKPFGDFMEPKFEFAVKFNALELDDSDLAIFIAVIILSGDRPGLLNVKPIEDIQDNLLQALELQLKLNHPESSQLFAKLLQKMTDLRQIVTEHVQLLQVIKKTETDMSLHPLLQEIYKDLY
# Assay: PPARγ ligand binding assay utilizing [3H]-BRL 49653 as the radioligand
# Settings: concentration of test compound required to reduce by 50% the specific binding of [3H]-BRL 49653; methods similar to Lehmann et al.
# Text: The compounds of the present invention can be evaluated for modulation of the PPARγ receptor using assays such as those described in Jiang, et al., Nature 391:82-86 (1998), Ricote, et al., Nature 391:79-82 (1998) and Lehmann, et al., J. Biol. Chem. 270(12): 12953-12956 (1995). Alternatively, the compounds can be evaluated for their ability to displace radiolabeled BRL 49653 from a PPARγ-GST fusion protein as follows:
# PPARγ-GST fusion protein (prepared according to standard procedures), [^3H]—BRL 49653 having 50 Ci/mmol specific activity, Polyfiltronics Unifilter 350 filtration plate and glutathione-Sepharose® beads (from Pharmacia: washed twice with 10×binding buffer in which BSA and DTT can be left out).
# Binding buffer (10 mM Tris-HCl, pH 8.0, 50 mM KCl, 10 mM DTT, 0.02% BSA and 0.01% NP-40) is added in 80 microliter amounts to the wells of the filtration plate. The test compound is then added in 10 microliters of DMSO. The PPARγ-GST fusion protein and radiolabeled BRL compound are premixed in binding buffer containing 10 mM DTT and added in 10 microliter amounts to the wells of the plate to provide final concentrations of 1 μg/well of PPARγ-GST fusion protein and 10 nM [^3H]—BRL 49653 compound. The plate is incubated for 15 minutes. Glutathione-agarose bead is added in 50 μL of binding buffer, and the plate is vigorously shaken for one hour. The plate is washed four times with 200 μL/well of binding buffer (without BSA and DTT). The bottom of the plate is sealed and 200 μL/well of scintillation cocktail is added. The top of the plate is then sealed and the radioactivity is determined.
# IC50 values are defined as the concentration of test compounds required to reduce by 50% the specific binding of [^3H]-BRL 49653.
row,IC50 [nM],Compound
1,800,"CCOC(=O)c1cc(NS(=O)(=O)c2cc([N+](=O)[O-])ccc2C)ccc1Oc1cncc(Cl)c1 [Example 5, ethyl 5-(2-methyl-5-nitrobenzenesulfonamido)-2-(3-chloro-5-pyridyloxy)benzoate]"
2,300,"CCOC(=O)c1cc(NS(=O)(=O)c2ccc(OC)c(OC)c2)ccc1Oc1cncc(Cl)c1 [Example 4, ethyl 5-(3,4-dimethoxy-benzenesulfonamido)-2-(3-chloro-5-pyridyloxy)benzoate]"
3,150,"CCOC(=O)c1cc(NS(=O)(=O)c2cc(Br)ccc2OC)ccc1Oc1cncc(Cl)c1 [Example 3, ethyl 5-(2-methoxy-5-bromobenzenesulfonamido)-2-(3-chloro-5-pyridyloxy)benzoate]"
4,800,"CCOC(=O)c1cc(NS(=O)(=O)c2c(C)cc(Cl)cc2Cl)ccc1Oc1cncc(Cl)c1 [Example 7, ethyl 5-(2,4-dichloro6-methylbenzenesulfonamido)-2-(3-chloro5-pyridyloxy)benzoate]"
5,6000,"CCOC(=O)c1cc(NS(=O)(=O)c2c(Cl)cccc2Cl)ccc1Oc1cncc(Cl)c1 [Example 6, ethyl 5-(2,6-dichlorobenzenesulfonamido)-2-(3-chloro-5-pyridyloxy)benzoate]"

# Test system: not given
# Assay: not given
# Settings: not given
row,melting point [°C],Compound
1,125 to 127,"CCOC(=O)c1cc(NC(=O)c2ccc(Cl)cc2Cl)ccc1Oc1cncc(Cl)c1 [Example 41, ethyl 5-(2,4-dichlorobenzamido)-2-(3-chloro-5-pyridyloxy)benzoate]"
2,166 to 168,"CCOC(=O)c1cc(NS(=O)(=O)c2ccc(Cl)nc2)ccc1Oc1cncc(Cl)c1 [Example 24, ethyl 5-(6-chloro-3-pyridinesulfonamido)-2-(3-chloro-5-pyridyloxy)benzoate]"
3,133 to 135,"CCOC(=O)c1cc(NS(=O)(=O)c2ccc(C(F)(F)F)cn2)ccc1Oc1cncc(Cl)c1 [Example 21, ethyl 5-(5-trifluoromethyl-2-pyridinesulfonamido)-2-(3-chloro-5-pyridyloxy)benzoate]"
4,120 to 122,"CCOC(=O)c1cc(NS(=O)(=O)c2cccnc2)ccc1Oc1cncc(Cl)c1 [Example 25, ethyl 5-(3-pyridinesulfonamido)-2-(3-chloro-5-pyridyloxy)benzoate]"
5,150 to 151.5,"O=S(=O)(Nc1cc(C(F)(F)F)ccc1Oc1cncc(Cl)c1)c1ccc(Cl)cc1Cl [Example 43, 4-(3-chloro-5-pyridyloxy)-3-(2,4-dichlorobenzenesulfonamido)benzotrifluoride]"
6,153 to 155,"CCOC(=O)c1cc(S(=O)(=O)Nc2ccc(Cl)cc2Cl)ccc1Oc1cncc(Cl)c1 [Example 40, ethyl 2-(3-chloro-5-pyridyloxy)-5-(2,4-dichlorophenylaminosulfonyl)benzoic acid]"
7,168 to 170,"O=S(=O)(Nc1ccccc1Oc1cncc(Cl)c1)c1ccc(Cl)cc1Cl [Example 32, 1-(3-chloro-5-pyridyloxy)-2-(2,4-dichlorobenzenesulfonamido)benzene]"
